Source: US20240261274A1, “TREATMENT OF MYC-DRIVEN CANCERS WITH GSPT1 DEGRADERS” (MONTE ROSA THERAPEUTICS, INC., priority 2021, published 2024)
Where two headings read alike, the source gives them in different places.

Experiments:
GSPT1 [1] = biological target: T1, GSPT1 (Homo sapiens, UniProt P15170+Q96SW2); assay: GSPT1 degradation by Compound 345 in cancer cell lines (western blot); assay type: cell-based; parameters: endogenous in cells; host or cells: MM1 S (ATCC CRL-2974); conditions: Compound 345 treated NSCLC lines plus Bortezomib 0.2 μM
T1 sequence (P15170 whole entry): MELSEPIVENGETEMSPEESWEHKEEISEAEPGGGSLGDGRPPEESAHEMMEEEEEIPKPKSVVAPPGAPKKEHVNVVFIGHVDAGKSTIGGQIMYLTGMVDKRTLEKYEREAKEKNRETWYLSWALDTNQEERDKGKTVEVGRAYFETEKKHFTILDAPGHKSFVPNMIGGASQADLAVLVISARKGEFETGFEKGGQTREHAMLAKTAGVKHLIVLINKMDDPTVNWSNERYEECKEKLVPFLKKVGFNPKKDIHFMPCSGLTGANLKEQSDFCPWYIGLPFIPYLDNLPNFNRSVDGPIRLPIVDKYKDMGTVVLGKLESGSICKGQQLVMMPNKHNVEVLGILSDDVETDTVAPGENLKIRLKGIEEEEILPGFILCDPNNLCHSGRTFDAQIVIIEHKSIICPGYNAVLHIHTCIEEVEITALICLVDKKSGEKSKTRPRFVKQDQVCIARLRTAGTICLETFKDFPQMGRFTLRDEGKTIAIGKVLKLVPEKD
T1 sequence (Q96SW2 whole entry): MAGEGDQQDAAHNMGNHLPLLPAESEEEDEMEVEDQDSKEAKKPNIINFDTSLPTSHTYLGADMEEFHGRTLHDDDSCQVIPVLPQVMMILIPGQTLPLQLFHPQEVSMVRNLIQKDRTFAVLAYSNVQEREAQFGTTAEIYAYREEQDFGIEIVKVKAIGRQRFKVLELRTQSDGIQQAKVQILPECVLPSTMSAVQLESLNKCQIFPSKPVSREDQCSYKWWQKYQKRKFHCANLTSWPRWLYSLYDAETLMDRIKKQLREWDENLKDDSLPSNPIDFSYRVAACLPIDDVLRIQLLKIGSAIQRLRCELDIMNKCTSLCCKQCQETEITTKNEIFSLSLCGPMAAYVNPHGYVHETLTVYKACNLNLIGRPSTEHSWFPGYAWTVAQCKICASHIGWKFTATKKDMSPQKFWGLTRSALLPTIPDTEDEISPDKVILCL
T1 sequence (Q16531 whole entry partner): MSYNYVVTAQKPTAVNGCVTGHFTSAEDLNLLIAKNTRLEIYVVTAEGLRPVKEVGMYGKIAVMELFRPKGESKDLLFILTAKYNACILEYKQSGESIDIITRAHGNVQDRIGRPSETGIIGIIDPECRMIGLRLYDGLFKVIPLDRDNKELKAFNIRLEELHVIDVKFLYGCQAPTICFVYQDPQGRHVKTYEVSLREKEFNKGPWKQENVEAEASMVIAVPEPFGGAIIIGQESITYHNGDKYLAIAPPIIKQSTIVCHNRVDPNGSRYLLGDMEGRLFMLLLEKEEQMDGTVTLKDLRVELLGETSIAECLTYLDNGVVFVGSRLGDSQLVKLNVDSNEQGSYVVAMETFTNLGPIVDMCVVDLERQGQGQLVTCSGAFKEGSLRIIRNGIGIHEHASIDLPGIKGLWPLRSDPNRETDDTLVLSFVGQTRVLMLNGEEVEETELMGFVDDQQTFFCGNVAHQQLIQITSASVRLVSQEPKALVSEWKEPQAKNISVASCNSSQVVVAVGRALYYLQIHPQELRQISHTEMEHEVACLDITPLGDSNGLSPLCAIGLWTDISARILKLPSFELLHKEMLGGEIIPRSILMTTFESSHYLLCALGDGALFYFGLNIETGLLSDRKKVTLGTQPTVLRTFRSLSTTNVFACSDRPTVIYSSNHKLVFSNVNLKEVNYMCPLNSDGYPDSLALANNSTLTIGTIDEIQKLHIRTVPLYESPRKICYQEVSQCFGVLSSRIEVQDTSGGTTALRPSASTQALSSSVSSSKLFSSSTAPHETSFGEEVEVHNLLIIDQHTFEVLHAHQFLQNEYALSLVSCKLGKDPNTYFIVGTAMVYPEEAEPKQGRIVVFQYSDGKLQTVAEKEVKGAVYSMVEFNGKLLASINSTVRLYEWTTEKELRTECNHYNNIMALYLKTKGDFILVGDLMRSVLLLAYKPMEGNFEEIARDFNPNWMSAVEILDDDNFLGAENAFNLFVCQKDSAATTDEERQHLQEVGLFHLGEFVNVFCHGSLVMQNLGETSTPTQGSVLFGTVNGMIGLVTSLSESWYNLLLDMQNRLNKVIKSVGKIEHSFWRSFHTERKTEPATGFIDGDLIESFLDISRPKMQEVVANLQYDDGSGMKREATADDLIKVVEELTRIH
Experimental: NCI-H1155 and ABC-1 were taken as representative of N-Myc positive NSCLC. NCI-H2023 and NCI-H441 as of N-Myc low representatives. 10A: western blotting analysis performed after 6 (NCI-H1155 and ABC-1) or 24 hr (NCI-H2023 and NCI-H441) posttreatment. […] 10B: corresponding densitometry analyses of GSPT1 normalized to GAPDH. DC50 and Dmax as indicated.
NCI-H1155 and ABC-1 were taken as representative of N-Myc high NSCLC. NCI-H2023 and NCI-H441 as of N-Myc low representatives. Left: densitometry analysis of GSPT1 normalized to GAPDH from western blotting following treatment with Compound 345 (as indicated). Right: 72 hr viability assay following treatment with Compound 345 as assessed by Cell Titer Glo. For both the GSPT1 expression plot and the cell viability plot, two Myc-driven cancer cell lines are represented by upright triangles and diamonds. Two non-Myc-driven cancer cell lines are represented by upside down triangles and circles.
NCI-H1155 and NCI-H2023 were taken as representative of N-Myc high and low NSCLC. 12A: western blot analysis probing for GSPT1 and N-Myc following treatment with Compound 345 (as indicated). Tubulin was used as a loading control. N-Myc could not be detected by western blotting in the NCI-H2023 line. 12B: Single-sample gene set enrichment analysis (ssGSEA) results for a Myc target gene set at 6 hours (left) and 24 hours (right) after treatment. ssGSEA scores were normalized to DMSOs for each cell line and averaged for three replicates. Error bars denote+/−1 s.d. across replicates.
NCI-H1836 and NCI-H1876 were taken as two representatives of L-Myc high SCLC. Western blot analysis probing for GSPT1 and L-Myc following treatment with Compound 345 as indicated. GAPDH was used as a loading control.
FIGS. 16A, 16B and 16C: Activity of Compound 345 in the c-Myc high multiple myeloma MM1S cell line. […] GAPDH was used as a loading control. […] Lenalidomide was used as a benchmark. 16C: Antiproliferative activity of Compound 345 (as indicated) following treatment with Compound 345 for 72 hr as assessed by Cell Titer Glo assay.
(§1) FIGS. 18A, 18B and 18C: Activity of Compound 345 in the c-Myc high WSU-DLCL2 lymphoma cell line. […] GAPDH was used as a loading control. 18B: Antiproliferative activity of Compound 345 (as indicated) following treatment with Compound 345 for 72 hr as assessed by Cell Titer Glo assay. […] Mice were dosed daily PO with vehicle or Compound 345 at 3, 10 mg/kg (as indicated). Tumor volumes were measured twice weekly. X-axis represents the number of days for treatment duration; y-axis represents mean tumor volume (in mm^3)±SEM. CHOP was used as a positive control for this model. Drug-free vehicle is represented by black circles; CHOP combination represented by light squares; Compound 345 3 mg/kg represented by triangles; Compound 345 10 mg/kg represented by dark squares.
as §1, with “19A, 19B,” for “18A, 18B”, “19C:” for “18C:”, “DOHH-2” for “WSU-DLCL2”, “19B:” for “18B:”, “model.” for “model. Drug-free vehicle is represented by black circles; CHOP combination represented by light squares; Compound 345 3 mg/kg represented by triangles; Compound 345 10 mg/kg represented by dark squares.”
Western blot analysis performed 24 hr post treatment initiation. GAPDH was used as a loading control. GSPT1 DC50 and Dmax as indicated.

[2] = test system: HMEC engineered to express c-Myc tagged with EGFP; assay: 3D spheroid assay, myc-HMEC (CellTiterGlo3D); assay type: cell-based; conditions: Homo sapiens, 120 h, myc-HMEC, 5 days, read-out: 3D spheroid assay Code (EC50, myc-HMEC assay)
Experimental: (§2) Human mammary epithelial cells (HMEC) were engineered to express either c-Myc tagged with EGFP or EGFP alone (non myc) (analogous but distinct from Kessler J D et al, Science. 2012 Jan. 20; 335(6066):348-53. doi: 10.1126/science.1212728; Hsu T Y et al, Nature. 2015 Sep. 17; 525(7569):384-8. doi: 10.1038/nature14985). The engineered cells were seeded at 1000 (myc) or 4000 (non myc) cells/well in a 384 ultra-low attachment plate in a total volume of 40 μL HMEC cell culture media (DMEM/F12+10% HI-FBS+15 mM HEPES+0.5 ug/ml Hydrocortisone+10 ug/ml Insulin+20 ng/ml EGF). Plates were spun at 1200 rpm for 5 minutes at room temperature to ensure that cells have gathered in the middle of the well and incubated at 37° C. for 48 hrs before firing with compounds. On Day 2 (48 h post seeding) cells were imaged (brightfield and EGFP fluorescence) using the Celigo imaging cytometer prior to firing compounds. For primary screens, compounds were added at three concentrations (1.25, 10 and 30 uM) in a volume of 120 nL using the ECHO acoustic dispenser and spun at 2000 rpm for 2 minutes at room temperature before incubating at 37° C. for 5 days. […] On Day 7, prior to measuring cell viability using CellTiterGlo3D, cells were imaged (brightfield and EGFP fluorescence) on the Celigo imaging cytometer. The CellTiterGlo3D reagent is added at 30 uL/well and incubated at room temperature for 30 mins. After 30 mins of incubation, luminescence readings were recorded using the Perkin Elmer EnVision reader.

GSPT1 [3] = biological target: T1, GSPT1; assay: GSPT1 degradation immunofluorescence assay in CAL-51 cells; assay type: cell-based; parameters: endogenous in cells; host or cells: CAL-51 (DSMZ ACC302); conditions: 6 hours, Table 4, read-out: Activity for GSPT1 degradation, Code (DC50)
Experimental: CAL-51 cells were purchased from DSMZ (cat. Number ACC302), sub-cultured in 90% Dulbecco's MEM (4.5 g/L glucose, Gibco 11965)+10% heat inactivated FBS (BioConcept, 2-01F1361) and incubated at 37° C., 5% CO2. For the assay, imaging microtiterplate Cell Carrier 96 Ultra (Perkin Elmer 6055302) were pre-coated with Fibronectin (Sigma F085, 30 μl at 0.2 μg/ml) in PBS (100 μl, Gibco 14190) for 45 min at room temperature, rinsed with PBS and CAL-51 cells (30K cells/well) were plated and let to adhere overnight. Cells were treated with compounds typically using a serial dilution ranging from 30 μM to 0.1 nM for 6 hours. Compounds were stored at 10 mM DMSO stocks. Vehicle (DMSO), positive (CC-885, 10 μM) and rescue controls (positive control plus 0.2 μM bortezomib) were also included at this stage. Cells were subsequently rinsed with PBS and fixed in 10% Formalin solution (50 μl, Sigma HT5011)) for 20 mins at room temperature. Following three consecutive PBS washes (100 μl), cells were permeabilized in 0.1% Triton X-100 in PBS (Sigma 93443, 50 μl) for 15 mins at room temperature. Following three further PBS washes, 50 μl blocking buffer (1% BSA, Sigma A4503, in PBS) was added for 45 min for signal-to-noise reduction. Primary antibody (human GSPT1, Sigma HPA052488) was diluted in blocking buffer (dil. 1/300, 35 μl/well) and incubated with the cells overnight at 4° C. After three PBS washes, Alexa-fluor 488 coupled secondary antibodies (Invitrogen, A32731, dil. 1/1000), Alexa-fluor 647-Phalloidin (Invitrogen, A22287, dil. 1/200) and DAPI (Thermo, #62248, dil. 1/1000) were diluted in blocking buffer and incubated with the samples for 2 hours at room temperature. After three final PBS washes, samples were conserved in 100 μl PBS in the dark, until measurement. Image acquisition was performed on the Operetta High-Content Imager (Perkin-Elmer). Fluorescence intensity of Alexa-Fluor 488 (GSPT1), Alexa-Fluor 647 (Actin) and DAPI (Nucleus) were measured. For the determination of GSPT1 DC50 values, a custom algorithm implemented in the PerkinElmer image analysis software Harmony-Acapella® was developed. After user-defined setting of adjustment parameters, the analysis was run identically without human intervention for all image fields. DAPI staining of the nuclei was used to determine the location of cells using standard nuclei detection modules. Segmentation artifacts were removed by threshold-based filters for area, roundness and intensity. The outline of the cells was determined analogously from the sum of the normalized, smoothed DAPI and Actin channel, starting from each nucleus. The Alexa-Fluor 488 (GSPT1) signal intensity in each cell was finally measured, in order to obtain a Mean intensity per cell. GSPT1 degradation (DC50) was calculated after normalization to controls and data import in CDD vault Database, using non-linear regression.

[4] = biological target: T2, Full length wild-type cereblon CRBN (Homo sapiens, UniProt Q96SW2); assay: Fluorescence polarization (FP) assay indicating cereblon binding; conditions: read-out: IC50 value
T2 construct: Full length wild-type cereblon CRBN (80.0 nM, 10 μL) was incubated in assay buffer
T2 sequence (Q96SW2 whole entry): as the sequence (Q96SW2 whole entry) above
Outline: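 Full-length wild-type CRBN at 80.0 nM was preincubated 30 min at room temperature with compound (12-point curve, 300–0.937 or 3000–9.3 nM) in 20 mM HEPES pH 8.0, 150 NaCl, 0.5 mM TCEP, 0.05% Tween 20. Cy5-type thalidomide-based probe added at 5 nM final; FP read after 12 h (ex 590/em 675 nm), normalized to DMSO, IC50 fitted.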

[5] = test system: HMEC engineered to express EGFP alone (non myc); assay: 3D spheroid assay, non myc-HMEC (CellTiterGlo3D); assay type: cell-based; conditions: Homo sapiens, 120 h, 5 days, read-out: 3D spheroid assay Code (EC50, non myc-HMEC assay)
Experimental: as §2

Compound | GSPT1 level with proteasome inhibitor added (GSPT1 [1]) | EC50 [2] | DC50 (GSPT1 [3]) | IC50 ([4]; bound stated) | IC50 ([4]; bounds stated) | EC50 [5]
CC(C)C[C@H](NC(=O)[C@H](Cc1ccccc1)NC(=O)c1cnccn1)B(O)O [Bortezomib, reference compound] | rescued GSPT1 from degradation |  |  |  |  | 
O=C1CCC(N2Cc3ccc(CNC(=O)Nc4ccc(Br)cc4)cc3C2=O)C(=O)N1 (stereo not drawn) [Compound 9] |  | > 2000 nM | > 300 nM | < 1100 nM | < 600 nM | > 10000 nM
COc1ccc(CCNC(=O)NCc2ccc3c(c2)C(=O)N(C2CCC(=O)NC2=O)C3)cc1 (stereo not drawn) [Compound 51] |  | > 2000 nM |  |  | < 600 nM | > 10000 nM
COc1ccccc1CNC(=O)NCc1ccc2c(c1)C(=O)N(C1CCC(=O)NC1=O)C2 (stereo not drawn) [Compound 60] |  | > 2000 nM |  |  | < 600 nM | > 10000 nM
